The values that follow come from ChEMBL document CHEMBL3817821, “Design and synthesis of thiamine analogues to study their binding to the ECF transporter for thiamine in bacteria” (Medchemcomm, 2016).

Assay [1] in a line: Binding affinity to His8-tagged Lactococcus lactis ThiT expressed in Lactococcus lactis NZ9000 cells by intrinsic fluorescence titration assay. It is filed as cell-based.
The nature of assay [2]: Binding affinity to Lactococcus lactis ThiT Gly129Ala mutant.
Assay [3] in a line: Binding affinity to His8-tagged Lactococcus lactis ThiT expressed in Lactococcus lactis NZ9000 cells by isothermal […] analysis. It is filed as cell-based.

`Cc1ncc(C[n+]2csc(CCO)c2C)c(N)n1` [THIAMINE]: the dissociation constant Kd in assay [1] came to 0.122 nM; in assay [2], 33.9 nM. For the compound `Cc1c(Cc2cnc(C(F)(F)F)nc2N)csc1CCO`, the affinity in assay [1], expressed as Kd, was 8.48 nM.

In turn, `Cc1c(Cc2cnc(N)nc2N)csc1CCO` returned an equilibrium dissociation constant (Kd) in assay [3] of 2920 nM. `CCc1ncc(Cc2csc(CCO)c2C)c(N)n1` returned a Kd in assay [1] of 5.04 nM. On the same count and under the same terms, with `Cc1c(Cc2cnc(C(C)C)nc2N)csc1CCO` the figure was 13.6 nM; with `Cc1ncc(Cc2csc(CCO)c2C)c(N)n1` [3-DEAZATHIAMINE], 4.23 nM. Regarding `Cc1c(Cc2cncnc2N)csc1CCO`, in assay [1], the Kd was found to be 1020 nM.

A word on the Kd: it is the free concentration of one partner at which half of the binding sites on the other are occupied at equilibrium, for simple one-to-one binding. Low readings indicate a tighter complex, high ones a looser complex.
